Measured values from paper PMC3224403 (Indian Journal of Pharmaceutical Sciences, 2011).

Experiments:
Type in all cases: in vivo
[1] = system: maximum electroshock seizure; assay: Maximum electroshock seizure; settings: dose 200 mg/Kg b.w. (5e, 5f: 150); Fischer's exact test
adrenal weight = assay: Adrenal weight change method; settings: suppression of adrenal weights; dose 200 mg/Kg b.w. (5e, 5f: 150)
[2] = system: carrageenan-induced rat paw edema; assay: Carrageenan-induced rat paw edema method
[3] = system: radiant heat induced rat tail flick; assay: Radiant heat induced rat tail flick method; settings: dose 200 mg/Kg b.w. (5e, 5f: 150)
ulcers = assay: Ulcerogenecity, arbitrary ulcer scoring system; settings: dose 200 mg/Kg b.w. (5e, 5f: 150); p in parentheses
[4] = system: cotton pellet induced granulation tissue formation; assay: Cotton pellet induced granulation tissue formation method; settings: dose 200 mg/Kg b.w. (5e, 5f: 150)

SMILES | Anticonvulsant activity, MES protection [1] [%] | Antiinflammatory activity Percentage Inhibition, Adrenal weight method (adrenal weight) [%] | Antiinflammatory activity Percentage Inhibition, Carrageenan method, 1 h ([2]; 1 h, dose 200 mg/Kg b.w. (5e, 5f: 150)) [%] | Antiinflammatory activity Percentage Inhibition, Carrageenan method, 3 h ([2]; 3 h, dose 200 mg/Kg b.w. (5e, 5f: 150)) [%] | Antiinflammatory activity, carrageenan-induced rat paw edema, after 6 h ([2]; 6 h as printed in the text) [%] | Analgesic activity percent protection, Rat tail flick method [3] [%] | Ulcer index (ulcers) | Antiinflammatory activity Percentage Inhibition, Cotton pellet method [4] [%]
O=C1NC(=O)C(c2ccccc2)(c2ccccc2)N1 [phenytoin sodium] | 100 |  |  |  |  |  |  | 
CC(=O)Oc1ccccc1C(=O)O [aspirin] |  | 50.13 | 54.84 | 55.05 | 73.81 | 49.39 | 43.33 | 41.88
